In ChEMBL document CHEMBL5321219, “Selective degradation of cellular BRD3 and BRD4-L promoted by PROTAC molecules in six cancer cell lines” (Eur J Med Chem, 2023):
Each block holds one compound with its values, some of them ahead of it. The source made the active and inactive calls. No cut-off for these calls is given here.

Key:
MM1.S [1] = assay: Antiproliferative activity against human MM1.S cells assessed as cell growth inhibition measured after 4 days by CellTitre-Glo assay; type: functional, cell-based; conditions: 96 h
Mus musculus = assay: In vivo PROTAC activity at CRBN/BRD4-L in SCID mouse xenografted with human MM1.S cells assessed as reduction in BRD4-L protein level in tumor at 100 mg/kg, po measured after 6 hrs by Western blot analysis; type: functional, organism-based
MV4-11 = assay: Antiproliferative activity against human MV4-11 cells assessed as cell growth inhibition measured after 3 days by CellTitre-Glo assay; type: functional, cell-based; conditions: MV4-11, 72 h
[2] = AUC (0 to t) in C57 mouse at 3 mg/kg, po measured upto 24 hrs by LC-MS/MS analysis; type: ADME, organism-based; set-up: time < 24 hrs, dose 3 mg/kg, route po; conditions: in vivo
[3] = Cmax in C57 mouse at 3 mg/kg, po measured upto 24 hrs by LC-MS/MS analysis; type: ADME, organism-based; set-up: dose 3 mg/kg, time < 24 hrs, route po; conditions: in vivo
[4] = Clearance in C57 mouse at 3 mg/kg, po measured upto 24 hrs by LC-MS/MS analysis; type: ADME, organism-based; conditions: in vivo
[5] = molecular target: T1, Bromodomain-containing protein 3 (Homo sapiens, UniProt Q15059); assay: Binding affinity to recombinant human BRD3 BD1 (24 to 144 residues) assessed as inhibition constant by fluorescence polarization binding assay
[6] = molecular target: T2, Protein cereblon/Bromodomain-containing protein 3 (Homo sapiens) (UniProt Q15059+Q96SW2); assay: PROTAC activity at CRBN/BRD3 in human MM1.S cells assessed as induction of protein degradation at 1 uM measured after 1 to 24 hrs by Western blot analysis; type: cell-based; conditions: time 1-24 hrs
[7] = molecular target: T3, Protein cereblon/Bromodomain-containing protein 4 (Homo sapiens) (UniProt O60885+Q96SW2); assay: In vivo PROTAC activity at CRBN/BRD4-L in SCID mouse xenografted with human MM1.S cells assessed as reduction in BRD4-L protein level in tumor at 1 to 5 mg/kg, iv measured after 6 hrs by Western blot analysis; type: functional, organism-based; conditions: dose 1-5 mg/kg
MM1.S [8] = assay: Antitumor activity against human MM1.S cells xenografted in SCID mouse assessed as tumor growth inhibition at 1 mg/kg, iv administered once daily via tail vein for 14 consecutive days and measured twice a week relative to control; type: functional; conditions: 336 h, time 14 day, read-out: TGI
MM1.S [9] = assay: Downregulation of c-Myc expression in human MM1.S cells at 30 nM measured after 1 to 24 hrs by Western blot analysis; type: functional, cell-based; conditions: time 1-24 hrs
[10] = AUC (0 to t) in C57 mouse at 3 mg/kg, iv measured upto 24 hrs by LC-MS/MS analysis; type: ADME, organism-based; set-up: dose 3 mg/kg, time < 24 hrs, route iv; conditions: in vivo
[11] = Cmax in C57 mouse at 3 mg/kg, iv measured upto 24 hrs by LC-MS/MS analysis; type: ADME, organism-based; set-up: dose 3 mg/kg, time < 24 hrs, route iv; conditions: in vivo
[12] = Toxicity in SCID mouse xenografted with human MM1.S cells assessed as effect on body weight at 1 mg/kg, iv administered once daily via tail vein for 14 consecutive days and measured twice a week; type: organism-based; conditions: in vivo, 336 h, time 14 day
[13] = Toxicity in SCID mouse xenografted with human MM1.S cells assessed as loss of body weight at 5 mg/kg, iv administered once daily via tail vein for 8 consecutive days and measured twice a week; type: organism-based; conditions: in vivo, 192 h, time 8 day
[14] = molecular target: T3, Protein cereblon/Bromodomain-containing protein 4 (Homo sapiens); assay: PROTAC activity at CRBN/BRD4-S in human MM1.S cells assessed as induction of protein degradation at 1 uM measured after 1 to 24 hrs by Western blot analysis; type: cell-based; conditions: time 1-24 hrs
MM1.S [15] = assay: Antitumor activity against human MM1.S cells xenografted in SCID mouse assessed as tumor growth inhibition at 5 mg/kg, iv administered once daily via tail vein for 8 consecutive days and measured twice a week relative to control; type: functional; conditions: 192 h, time 8 day, read-out: TGI
[16] = molecular target: T1, Bromodomain-containing protein 3; assay: Binding affinity to recombinant human BRD3 BD2 (306 to 417 residues) assessed as inhibition constant by fluorescence polarization binding assay
[17] = molecular target: T3, Protein cereblon/Bromodomain-containing protein 4 (Homo sapiens); assay: In vivo PROTAC activity at CRBN/BRD4-S in SCID mouse xenografted with human MM1.S cells assessed as reduction in BRD4-S protein level in tumor at 5 mg/kg, iv measured after 24 hrs by Western blot analysis; type: functional, organism-based
[18] = molecular target: T4, Protein cereblon/Bromodomain-containing protein 2 (Homo sapiens) (UniProt P25440+Q96SW2); assay: PROTAC activity at CRBN/BRD2 in human MM1.S cells assessed as induction of protein degradation at 1 uM measured after 1 to 24 hrs by Western blot analysis; type: cell-based; conditions: time 1-24 hrs
[19] = molecular target: T2, Protein cereblon/Bromodomain-containing protein 3 (Homo sapiens); assay: PROTAC activity at CRBN/BRD3 in human MM1.S cells assessed as induction of protein degradation at 30 nM by Western blot analysis; type: cell-based; conditions: TDE = time-dependent effect
[20] = molecular target: T2, Protein cereblon/Bromodomain-containing protein 3 (Homo sapiens); assay: In vivo PROTAC activity at CRBN/BRD3 in SCID mouse xenografted with human MM1.S cells assessed as reduction in BRD3 protein level in tumor at 5 mg/kg, iv measured after 24 hrs by Western blot analysis; type: functional, organism-based
[21] = molecular target: T3, Protein cereblon/Bromodomain-containing protein 4 (Homo sapiens); assay: PROTAC activity at CRBN/BRD4-L in human MM1.S cells assessed as induction of protein degradation at 1 uM measured after 1 to 24 hrs by Western blot analysis; type: cell-based; conditions: time 1-24 hrs
[22] = Oral bioavailability in C57 mouse at 3 mg/kg measured upto 24 hrs by LC-MS/MS analysis; type: ADME, organism-based; conditions: in vivo
MM1.S [23] = assay: Induction of cell cycle arrest in human MM1.S cells assessed as accumulation of cells at G1 phase incubated for 24 hrs by flow cytometry analysis; type: functional, cell-based; conditions: dose 1-300 nM
MM1.S [24] = assay: Downregulation of c-Myc protein expression in human MM1.S cells at 0.1 to 30 nM measured after 24 hrs by Western blot analysis; type: functional, cell-based; conditions: dose 0.1-30 nM
[25] = molecular target: T3, Protein cereblon/Bromodomain-containing protein 4 (Homo sapiens); assay: PROTAC activity at CRBN/BRD4-L in human MM1.S cells assessed as induction of protein degradation at 30 nM by Western blot analysis; type: cell-based; conditions: TDE = time-dependent effect
[26] = molecular target: T2, Protein cereblon/Bromodomain-containing protein 3 (Homo sapiens); assay: In vivo PROTAC activity at CRBN/BRD3 in SCID mouse xenografted with human MM1.S cells assessed as reduction in BRD3 protein level in tumor at 1 to 5 mg/kg, iv measured after 6 hrs by Western blot analysis; type: functional, organism-based; conditions: dose 1-5 mg/kg
[27] = Tmax in C57 mouse at 3 mg/kg, iv measured upto 24 hrs by LC-MS/MS analysis; type: ADME, organism-based; conditions: in vivo
[28] = Clearance in C57 mouse at 3 mg/kg, iv measured upto 24 hrs by LC-MS/MS analysis; type: ADME, organism-based; conditions: in vivo
[29] = molecular target: T4, Protein cereblon/Bromodomain-containing protein 2 (Homo sapiens); assay: In vivo PROTAC activity at CRBN/BRD2 in SCID mouse xenografted with human MM1.S cells assessed as reduction in BRD2 protein level in tumor at 5 mg/kg, iv measured after 24 hrs by Western blot analysis; type: functional, organism-based
[30] = Half life in C57 mouse at 3 mg/kg, iv measured upto 24 hrs by LC-MS/MS analysis; type: ADME, organism-based; conditions: in vivo
[31] = molecular target: T2, Protein cereblon/Bromodomain-containing protein 3 (Homo sapiens); assay: In vivo PROTAC activity at CRBN/BRD3 in SCID mouse xenografted with human MM1.S cells assessed as reduction in BRD3 protein level in tumor at 1 mg/kg, iv measured after 24 hrs by Western blot analysis; type: functional, organism-based
[32] = Tmax in C57 mouse at 3 mg/kg, po measured upto 24 hrs by LC-MS/MS analysis; type: ADME, organism-based; conditions: in vivo
[33] = molecular target: T3, Protein cereblon/Bromodomain-containing protein 4 (Homo sapiens); assay: In vivo PROTAC activity at CRBN/BRD4-L in SCID mouse xenografted with human MM1.S cells assessed as reduction in BRD4-L protein level in tumor at 5 mg/kg, iv measured after 24 hrs by Western blot analysis; type: functional, organism-based
[34] = molecular target: T3, Protein cereblon/Bromodomain-containing protein 4 (Homo sapiens); assay: In vivo PROTAC activity at CRBN/BRD4-S in SCID mouse xenografted with human MM1.S cells assessed as reduction in BRD4-S protein level in tumor at 1 to 5 mg/kg, iv measured after 6 hrs by Western blot analysis; type: functional, organism-based; conditions: dose 1-5 mg/kg
[35] = molecular target: T4, Protein cereblon/Bromodomain-containing protein 2 (Homo sapiens); assay: In vivo PROTAC activity at CRBN/BRD2 in SCID mouse xenografted with human MM1.S cells assessed as reduction in BRD2 protein level in tumor at 1 to 5 mg/kg, iv measured after 6 hrs by Western blot analysis; type: functional, organism-based; conditions: dose 1-5 mg/kg

T3 sequence (Q96SW2 whole entry, looked up, other chains not shown): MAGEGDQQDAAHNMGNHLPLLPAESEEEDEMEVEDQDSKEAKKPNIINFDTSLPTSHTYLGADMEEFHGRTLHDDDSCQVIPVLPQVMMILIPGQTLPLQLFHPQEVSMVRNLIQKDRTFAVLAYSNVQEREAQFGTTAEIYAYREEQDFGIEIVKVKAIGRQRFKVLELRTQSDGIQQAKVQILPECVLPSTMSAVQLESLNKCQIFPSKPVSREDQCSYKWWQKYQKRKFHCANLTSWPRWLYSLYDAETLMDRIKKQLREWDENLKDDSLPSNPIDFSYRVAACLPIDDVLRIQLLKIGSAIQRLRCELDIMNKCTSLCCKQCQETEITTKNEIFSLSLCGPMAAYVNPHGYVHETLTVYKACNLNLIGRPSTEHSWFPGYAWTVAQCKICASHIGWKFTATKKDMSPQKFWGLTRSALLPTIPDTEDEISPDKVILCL
T4 sequence (P25440 whole entry, looked up): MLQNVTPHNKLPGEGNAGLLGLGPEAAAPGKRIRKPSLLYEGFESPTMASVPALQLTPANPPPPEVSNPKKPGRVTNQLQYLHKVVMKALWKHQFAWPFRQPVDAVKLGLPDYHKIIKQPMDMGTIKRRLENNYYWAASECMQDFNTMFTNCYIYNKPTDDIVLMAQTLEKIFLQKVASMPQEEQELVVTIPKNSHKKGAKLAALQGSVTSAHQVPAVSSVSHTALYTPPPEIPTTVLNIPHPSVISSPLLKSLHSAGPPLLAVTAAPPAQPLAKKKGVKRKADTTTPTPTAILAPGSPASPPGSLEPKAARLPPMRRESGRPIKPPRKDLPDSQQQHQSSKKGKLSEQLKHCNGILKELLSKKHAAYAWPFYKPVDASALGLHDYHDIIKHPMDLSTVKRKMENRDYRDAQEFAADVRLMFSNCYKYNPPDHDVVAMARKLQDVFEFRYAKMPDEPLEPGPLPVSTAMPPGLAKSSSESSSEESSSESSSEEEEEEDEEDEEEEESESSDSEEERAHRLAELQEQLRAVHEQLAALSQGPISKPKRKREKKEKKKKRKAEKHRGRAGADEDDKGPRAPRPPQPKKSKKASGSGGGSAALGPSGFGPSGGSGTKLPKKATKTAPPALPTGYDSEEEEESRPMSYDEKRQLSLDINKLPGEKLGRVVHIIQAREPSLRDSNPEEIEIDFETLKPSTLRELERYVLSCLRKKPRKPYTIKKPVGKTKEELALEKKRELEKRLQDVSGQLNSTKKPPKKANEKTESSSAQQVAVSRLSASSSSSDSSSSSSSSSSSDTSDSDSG
T4 sequence (Q96SW2 whole entry, looked up): as the sequence (Q96SW2 whole entry, looked up, other chains not shown) above
T2 sequence (Q15059 2-726 limits assumed): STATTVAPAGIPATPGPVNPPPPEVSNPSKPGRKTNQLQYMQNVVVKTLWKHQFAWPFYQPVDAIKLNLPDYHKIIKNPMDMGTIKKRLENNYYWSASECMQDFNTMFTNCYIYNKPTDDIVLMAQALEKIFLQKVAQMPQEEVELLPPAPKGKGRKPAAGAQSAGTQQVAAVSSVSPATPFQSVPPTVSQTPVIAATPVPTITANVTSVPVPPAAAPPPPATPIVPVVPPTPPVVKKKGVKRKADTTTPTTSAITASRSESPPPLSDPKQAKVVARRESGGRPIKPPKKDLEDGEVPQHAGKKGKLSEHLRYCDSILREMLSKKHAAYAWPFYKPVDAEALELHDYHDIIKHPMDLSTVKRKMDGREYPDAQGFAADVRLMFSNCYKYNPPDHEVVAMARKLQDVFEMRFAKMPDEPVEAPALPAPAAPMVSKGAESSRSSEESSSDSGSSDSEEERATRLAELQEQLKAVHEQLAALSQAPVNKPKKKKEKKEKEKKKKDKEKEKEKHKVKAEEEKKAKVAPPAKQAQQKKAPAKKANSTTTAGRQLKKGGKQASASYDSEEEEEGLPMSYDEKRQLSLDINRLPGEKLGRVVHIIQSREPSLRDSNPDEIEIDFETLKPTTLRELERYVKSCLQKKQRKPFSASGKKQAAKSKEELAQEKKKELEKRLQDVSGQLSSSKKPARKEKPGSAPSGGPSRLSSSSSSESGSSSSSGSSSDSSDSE
T2 sequence (Q96SW2 whole entry partner): as the sequence (Q96SW2 whole entry, looked up, other chains not shown) above
T1 sequence (Q15059 whole entry, the tested form may be a part): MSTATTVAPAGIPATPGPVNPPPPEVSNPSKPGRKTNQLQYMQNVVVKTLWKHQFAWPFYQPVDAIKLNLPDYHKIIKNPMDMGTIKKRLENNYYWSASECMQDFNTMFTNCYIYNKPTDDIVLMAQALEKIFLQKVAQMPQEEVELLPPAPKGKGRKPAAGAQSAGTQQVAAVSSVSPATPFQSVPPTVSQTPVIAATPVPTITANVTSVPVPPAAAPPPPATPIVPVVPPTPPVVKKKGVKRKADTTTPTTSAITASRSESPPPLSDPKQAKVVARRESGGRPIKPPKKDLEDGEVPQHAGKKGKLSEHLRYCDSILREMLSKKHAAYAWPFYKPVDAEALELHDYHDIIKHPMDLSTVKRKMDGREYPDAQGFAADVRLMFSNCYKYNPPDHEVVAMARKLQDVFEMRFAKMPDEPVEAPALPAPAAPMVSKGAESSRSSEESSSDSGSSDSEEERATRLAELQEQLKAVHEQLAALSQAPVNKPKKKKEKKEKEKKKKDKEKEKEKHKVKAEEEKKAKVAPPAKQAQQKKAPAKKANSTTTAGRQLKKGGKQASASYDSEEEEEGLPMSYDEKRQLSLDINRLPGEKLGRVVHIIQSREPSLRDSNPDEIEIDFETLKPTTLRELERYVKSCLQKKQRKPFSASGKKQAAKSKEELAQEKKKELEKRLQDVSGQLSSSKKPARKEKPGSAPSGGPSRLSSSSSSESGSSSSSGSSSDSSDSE

IC50 (MM1.S [1]): 2320 nM | IC50 (MV4-11): 270 nM
SMILES: Cc1nnc2n1-c1ccc(-c3cnn(C)c3)cc1[C@H](Nc1ccc(Cl)cc1)CC2
Activity (Mus musculus): Active

AUCt [2]: 26 ng·h/mL | Cmax [3]: 51 ng/mL | CL/F [4]: 1240 mL/min/kg | Ki [5]: 16.9 nM | Activity [6]: Active | Activity [7]: Active | AUCt [10]: 2961 ng·h/mL | Cmax [11]: 7410 ng/mL | IC50 (MM1.S [1]): 85.4 nM | Activity [14]: inactive | Ki [16]: 2.8 nM | Activity [17]: inactive | Activity [18]: Active | Activity [19]: Tde | Activity [20]: Active | Activity [21]: Active | F [22]: 2.14% | IC50 (MV4-11): 7.46 nM | Activity [25]: Tde | Activity [26]: Active | Tmax [27]: 6 min | clearance [28]: 16.9 mL/min/kg | Activity [29]: inactive | half-life [30]: 30 min | Activity [31]: inactive | Tmax [32]: 24 min | Activity [33]: inactive | Activity [34]: inactive | Activity [35]: inactive
SMILES: Cc1nnc2n1-c1ccc(-c3ccc(CN(C)CCCCc4cccc5c4CN(C4CCC(=O)NC4=O)C5=O)cc3)cc1C(Nc1ccc(Cl)cc1)CC2 (centres undefined)
inhibition in vivo at 1 mg/kg (MM1.S [8]): 40% | Activity (MM1.S [9]): Active | Activity [12]: Non-Toxic | Activity [13]: Toxic | inhibition in vivo at 5 mg/kg (MM1.S [15]): 64% | Activity (MM1.S [23]): Dose-Dependent Effect | Activity (MM1.S [24]): Active
